Key:
CYP26B (P450RAI-2) = molecular target: T1, CYP26B (P450RAI-2) (Homo sapiens, UniProt Q9NR63); experiment: [3H]-RA-metabolism inhibition assay using microsomes from Hela-CYP26B (stable) cells; conditions: 5 μg microsomes, NADPH, 1 hour at 37° C., water-soluble metabolites
T1 sequence (Q9NR63 1-512): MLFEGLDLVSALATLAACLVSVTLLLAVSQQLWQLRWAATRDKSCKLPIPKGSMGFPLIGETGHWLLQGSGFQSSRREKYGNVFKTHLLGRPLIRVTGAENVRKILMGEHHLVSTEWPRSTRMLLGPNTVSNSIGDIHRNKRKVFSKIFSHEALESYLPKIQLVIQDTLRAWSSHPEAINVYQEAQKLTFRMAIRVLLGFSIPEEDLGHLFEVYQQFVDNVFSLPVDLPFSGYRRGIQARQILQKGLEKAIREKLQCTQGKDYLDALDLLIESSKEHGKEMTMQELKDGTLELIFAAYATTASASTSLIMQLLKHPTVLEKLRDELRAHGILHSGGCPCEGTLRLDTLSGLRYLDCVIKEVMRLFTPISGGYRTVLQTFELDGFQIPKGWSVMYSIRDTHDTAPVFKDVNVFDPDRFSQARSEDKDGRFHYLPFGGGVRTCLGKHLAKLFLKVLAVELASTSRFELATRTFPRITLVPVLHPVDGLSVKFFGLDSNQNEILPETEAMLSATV
Experimental: [^3H]-RA-metabolism inhibition assay was carried outusing microsomes prepared from Hela-CYP26B (stable) cells. […] The reaction was started by adding NADPH for 1 hour at 37° C. and then total reinoids were extracted using Bligh-Dyer procedure and water-soluble metabolites counted. […] Ketoconazol is an inhibitor of CYP26B.

P450RAI-1 = molecular target: T2, P450RAI-1 (Homo sapiens, UniProt O43174); experiment: Competitive inhibition of [3H]all-trans-RA metabolism in COS-1 cells transfected with pcDNA3.1-P450RAI-1; format: cell-based; design: expressed in transfected cells; host or cells: COS-1 (African green monkey kidney), transient; conditions: COS-1 cells expressing P450RAI-1, 2 nM [3H]all-trans-RA
T2 sequence (O43174 1-497): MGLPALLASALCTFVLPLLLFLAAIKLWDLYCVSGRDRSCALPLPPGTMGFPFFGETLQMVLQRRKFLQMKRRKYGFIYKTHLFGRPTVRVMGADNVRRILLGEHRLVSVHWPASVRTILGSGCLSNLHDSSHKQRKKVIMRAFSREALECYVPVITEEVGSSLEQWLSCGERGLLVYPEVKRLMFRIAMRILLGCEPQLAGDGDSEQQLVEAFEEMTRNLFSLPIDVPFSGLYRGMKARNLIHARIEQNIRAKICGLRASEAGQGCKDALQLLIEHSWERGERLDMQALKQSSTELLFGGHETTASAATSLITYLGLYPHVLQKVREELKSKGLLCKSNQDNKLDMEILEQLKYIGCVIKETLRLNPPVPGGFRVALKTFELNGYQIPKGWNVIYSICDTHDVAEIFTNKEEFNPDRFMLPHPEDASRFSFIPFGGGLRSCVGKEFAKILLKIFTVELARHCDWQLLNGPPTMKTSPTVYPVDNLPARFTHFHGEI
Experimental: COS-1 cells were transfected with either pcDNA3.1-P450RAI-1 or pcDNA3.1-P450RAI-2 in 6-well tissue culture plates as described above. 48 hours post-transfection cells were harvested, pooled, washed with DMEM medium and replated into duplicate 48-well plates with 5×10^5 cells per well.

P450RAI-2 transcripts = experiment: Induction of P450RAI-2 transcripts in human cell lines (Northern blot, RT-PCR); format: cell-based; conditions: MCF-7 cells, 10^-6 M retinoid, 12 hours, northern blot
From the text: HPK1a-ras (ras-transformed human keratinocyte), COS-1 (African green monkey kidney and V79 cells (Chinese Hamster lung) were maintained in DMEM supplemented with 10% FBS (5% for V79). WTE (human non-small cell lung carcinoma and SW900 (human non-small cell lung carcinoma) cells were maintained in RPMI supplemented with 10% FBS. SK-Luci-6 (human non-small cell lung carcinoma) and SK-MES-1 (human non-small cell lung carcinoma) cells in RPMI with 5% FBS. NB4 (human acute prmyelocytic leukemia-serived) cells were maintained in RPMI supplemented with 10% FBS and gentamicin ([…]) HeLa cells (human cervical carcinoma) were maintained in MEM supplemented with 10% FBS. Previous cell lines were supplemented with penicillin (50 units/ml) streptomycin (50 ug/ml) and fungizone (0.1% final concentration). MCF-7 cells (human breast epithelial adenocarcinoma) were grown in MEM supplemented with 10% FBS, insulin (10 ng/ml), sodium pyruvate (0.5 mM), non-essential amino acids (100 nM), L-glutamine (2 mM), penicillin (5 ug.ml), streptomycin (5 ug/ml), fungizone (200 ng/ml), and gentamicin ([…]). All reagents were supplied by Life Technologies, NY. Cells lines were maintained at 37° C. in an atmosphere of 5% CO2 and 95% air.
Gels were photographed under ultraviolet light and then blotted onto Hybond ECL nitrocellulose membrane (Amersham Pharmacia Biotech, UK) and fixed to the membrane by baking at 80° C. for 2 hours under vacuum. […] Full length P450RAI-1 and P450RAI-2 cDNA were labeled with α-[^32P]dATP using Prime-A-Gene Labeling System (Promega, WI). The blot was washed two times for 15 minutes in 2×SSC, 0.1% SDS at room temperature then for 15 minutes at 60° C. in 0.1×SSC, and 0.1% SDS and exposed at −70° C. for 19 hours to Kodak X-Omat AR film (Eastman Kodak Company, NY).
The regulation of P450RAI-2 expression by various retinoids was checked in three different human cell lines, SKMES, CALU-1 and MCF-7. […] The blot was washed as follows: 2×SSPE & 0.1% SDS two washes of 5 minutes each; 1×SSPE & 0.1% SDS one wash of 15 minutes at 65° C.; 0.1×SSPE & 0.1×SDS one wash of 15 minutes at 65° C.
The blot was washed as follows: 2×SSC & 0.1% SDS two washes of 5 minutes each at room temperature; 1×SSC & 0.1% SDS one wash of 15 minutes at 65° C.; 0.1×SSC & 0.1% SDS three washes of 15 minutes each at 65° C.
The blot was washed as follows: 2×SSPE & 0.1% SDS two washes of 5 minutes each; 1×SSPE & 0.1% SDS one wash of 15 minutes at 65° C.; 0.1×SSPE & 0.1×SDS one wash of 15 minutes at 65° C.
The final primer concentrations were 45 μM for the P450RAI-2 primers and 11.25 μM for the GAPDH-specific primers.

P450RAI-2 = molecular target: T3, P450RAI-2 (Homo sapiens, UniProt Q9NR63); experiment: Competitive inhibition of [3H]all-trans-RA metabolism in COS-1 cells transfected with pcDNA3.1-P450RAI-2; format: cell-based; design: The full-length human P450RAI-2 cDNA was cloned into the eukaryotic expression vector pcDNA 3.1; expressed in transfected cells; host or cells: COS-1 (African green monkey kidney), transient; conditions: COS-1 cells expressing P450RAI-2, 2 nM [3H]all-trans-RA
T3 sequence (Q9NR63 1-512): T1 sequence (Q9NR63 1-512)
From the text: COS-1 cells were transfected with either pcDNA3.1-P450RAI-1 or pcDNA3.1-P450RAI-2 in 6-well tissue culture plates as described above.

## CC1=C(/C=C/C(C)=C/C=C/C(C)=C\C(=O)O)C(C)(C)CCC1 [13-cis-RA, 13-cis retinoic acid]
CYP26B (P450RAI-2)
  Competition of [3H]-RA metabolism in microsomes: did not compete at lower concentrations
P450RAI-1
  Effectiveness as competitor of all-trans-RA metabolism: less effective than all-trans-RA
P450RAI-2 transcripts
  Induction of P450RAI-2 expression: induced
P450RAI-2
  Effectiveness as competitor of all-trans-RA metabolism: less effective than all-trans-RA

— US7579329B2, “P450RAI-2 (P450 cytochrome 26B), encoding nucleic acid molecules and methods and uses thereof” (Cytochroma Inc., priority 1999, dated 2009)
